The source made the active and inactive calls. The calls are words filed in the database; no cut-off is given here.
Assays:
[1] = test system: MV4-11; assay: Growth inhibition of human MV4-11 cells measured after 72 hrs; format: functional
[2] = biological target: T1, Bromodomain-containing protein 4 (Homo sapiens, UniProt O60885); assay: Inhibition of BRD4 bromodomain 1/2 (unknown origin) assessed as dissociation constant by DiscoveRx BROMOscan assay
[3] = AUC(0 to t) in CD-1 mouse plasma at 10 mg/kg, sc; format: ADME, organism-based; design: dose 10 mg/kg, route sc
[4] = Tmax in CD-1 mouse brain at 50 mg/kg, po; format: ADME, organism-based
[5] = Cmax in CD-1 mouse brain at 50 mg/kg, po; format: ADME, organism-based; design: dose 50 mg/kg, route po
[6] = Half-life in CD-1 mouse brain at 50 mg/kg, po; format: ADME, organism-based
[7] = AUC(0 to t) in CD-1 mouse brain at 50 mg/kg, po; format: ADME, organism-based; design: dose 50 mg/kg, route po
[8] = Tmax in rat plasma at 50 mg/kg, po; format: ADME, organism-based
[9] = Cmax in rat plasma at 50 mg/kg, po; format: ADME, organism-based; design: dose 50 mg/kg, route po
[10] = Half-life in rat plasma at 50 mg/kg, po; format: ADME, organism-based
[11] = AUC(0 to t) in rat plasma at 50 mg/kg, po; format: ADME, organism-based; design: dose 50 mg/kg, route po
[12] = Half-life in CD-1 mouse plasma at 10 mg/kg, sc; format: ADME, organism-based
[13] = Cmax in CD-1 mouse plasma at 10 mg/kg, sc; format: ADME, organism-based; design: dose 10 mg/kg, route sc
[14] = Tmax in CD-1 mouse plasma at 10 mg/kg, sc; format: ADME, organism-based
[15] = AUC(0 to t) in CD-1 mouse plasma at 50 mg/kg, po; format: ADME, organism-based; design: dose 50 mg/kg, route po
[16] = Half-life in CD-1 mouse plasma at 50 mg/kg, po; format: ADME, organism-based
[17] = Cmax in CD-1 mouse plasma at 50 mg/kg, po; format: ADME, organism-based; design: dose 50 mg/kg, route po
[18] = Tmax in CD-1 mouse plasma at 50 mg/kg, po; format: ADME, organism-based
[19] = biological target: T2, Cytochrome P450 1A2 (Homo sapiens, UniProt P05177); assay: Inhibition of CYP1A2 (unknown origin) by fluorescence based assay; format: ADME
T2 sequence (P05177 whole entry): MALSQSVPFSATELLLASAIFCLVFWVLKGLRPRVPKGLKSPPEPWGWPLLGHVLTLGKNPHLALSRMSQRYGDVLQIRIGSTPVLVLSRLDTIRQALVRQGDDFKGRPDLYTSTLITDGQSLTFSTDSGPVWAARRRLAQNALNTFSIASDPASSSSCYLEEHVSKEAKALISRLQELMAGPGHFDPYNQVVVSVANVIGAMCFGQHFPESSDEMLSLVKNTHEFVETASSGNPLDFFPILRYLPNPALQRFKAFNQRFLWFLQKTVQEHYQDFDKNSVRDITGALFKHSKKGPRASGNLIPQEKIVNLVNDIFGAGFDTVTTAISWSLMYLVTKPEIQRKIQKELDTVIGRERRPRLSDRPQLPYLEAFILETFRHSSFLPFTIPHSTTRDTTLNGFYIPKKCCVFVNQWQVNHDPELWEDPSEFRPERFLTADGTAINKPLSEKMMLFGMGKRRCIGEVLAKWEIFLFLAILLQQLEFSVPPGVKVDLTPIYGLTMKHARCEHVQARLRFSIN

[20] = biological target: Cytochrome P450 2C9 (Homo sapiens, UniProt P11712); assay: Inhibition of CYP2C9 (unknown origin) by fluorescence based assay; format: ADME
[21] = biological target: Cytochrome P450 2C19 (Homo sapiens, UniProt P33261); assay: Inhibition of CYP2C19 (unknown origin) by fluorescence based assay; format: ADME
[22] = biological target: Cytochrome P450 2D6 (Homo sapiens, UniProt P10635); assay: Inhibition of CYP2D6 (unknown origin) by fluorescence based assay; format: ADME
[23] = biological target: Cytochrome P450 3A4 (Homo sapiens, UniProt P08684); assay: Inhibition of CYP3A4 (unknown origin) by fluorescence based assay; format: ADME
[24] = Stability in human liver microsomes assessed as half-life; format: ADME, Microsome
[25] = Stability in mouse liver microsomes assessed as half-life; format: ADME, Microsome
[26] = biological target: Non-receptor tyrosine-protein kinase TYK2 (Homo sapiens) (UniProt P29597); assay: Inhibition of TYK2 (unknown origin) at 10 uM by DiscoverX KINOMEscan relative to control
[27] = biological target: Tyrosine-protein kinase JAK1 (Homo sapiens) (UniProt P23458); assay: Inhibition of JAK1 JH2 (unknown origin) at 10 uM by DiscoverX KINOMEscan relative to control
[28] = biological target: Histone acetyltransferase p300 (Homo sapiens) (UniProt Q09472); assay: Inhibition of EP300 (unknown origin) at 10 uM by DiscoverX BROMOscan assay
[29] = biological target: CREB-binding protein (Homo sapiens) (UniProt Q92793); assay: Inhibition of CREBBP (unknown origin) at 10 uM by DiscoverX BROMOscan assay
[30] = biological target: T3, Peregrin (Homo sapiens) (UniProt P55201); assay: Inhibition of BRPF1 (unknown origin) at 10 uM by DiscoverX BROMOscan assay
T3 sequence (whole entry): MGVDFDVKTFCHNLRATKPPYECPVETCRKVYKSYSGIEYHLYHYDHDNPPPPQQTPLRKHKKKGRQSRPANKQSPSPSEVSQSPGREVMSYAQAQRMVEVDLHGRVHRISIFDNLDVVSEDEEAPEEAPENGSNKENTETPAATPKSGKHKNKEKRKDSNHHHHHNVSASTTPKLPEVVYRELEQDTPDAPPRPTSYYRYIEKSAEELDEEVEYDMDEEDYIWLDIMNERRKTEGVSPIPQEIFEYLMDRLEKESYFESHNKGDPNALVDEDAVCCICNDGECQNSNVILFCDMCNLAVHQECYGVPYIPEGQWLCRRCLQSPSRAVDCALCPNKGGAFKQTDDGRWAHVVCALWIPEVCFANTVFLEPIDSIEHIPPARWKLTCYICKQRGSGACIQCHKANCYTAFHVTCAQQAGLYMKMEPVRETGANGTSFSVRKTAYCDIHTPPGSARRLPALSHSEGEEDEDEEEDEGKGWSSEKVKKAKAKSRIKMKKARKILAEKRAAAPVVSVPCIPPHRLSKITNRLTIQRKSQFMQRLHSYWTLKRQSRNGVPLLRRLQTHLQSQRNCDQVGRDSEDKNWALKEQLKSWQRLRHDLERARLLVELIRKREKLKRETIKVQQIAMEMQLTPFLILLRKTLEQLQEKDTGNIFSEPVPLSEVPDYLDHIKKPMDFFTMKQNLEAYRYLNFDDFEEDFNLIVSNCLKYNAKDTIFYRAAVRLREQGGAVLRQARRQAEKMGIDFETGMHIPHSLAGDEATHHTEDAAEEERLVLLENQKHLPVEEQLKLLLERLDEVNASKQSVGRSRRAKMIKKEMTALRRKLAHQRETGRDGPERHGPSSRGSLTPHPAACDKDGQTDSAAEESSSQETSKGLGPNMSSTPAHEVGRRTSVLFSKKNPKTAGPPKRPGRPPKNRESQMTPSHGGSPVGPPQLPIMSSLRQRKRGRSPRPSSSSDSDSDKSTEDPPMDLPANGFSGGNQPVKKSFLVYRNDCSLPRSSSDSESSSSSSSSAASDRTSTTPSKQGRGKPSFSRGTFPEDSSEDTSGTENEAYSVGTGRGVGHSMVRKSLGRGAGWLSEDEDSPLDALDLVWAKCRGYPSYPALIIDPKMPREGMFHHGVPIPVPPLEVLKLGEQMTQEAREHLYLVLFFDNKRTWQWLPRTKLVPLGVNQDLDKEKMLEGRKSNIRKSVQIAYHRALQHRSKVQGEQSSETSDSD

[31] = biological target: T4, Bromodomain-containing protein 9 (Homo sapiens) (UniProt Q9H8M2); assay: Inhibition of BRD9 (unknown origin) at 10 uM by DiscoverX BROMOscan assay
T4 sequence (whole entry): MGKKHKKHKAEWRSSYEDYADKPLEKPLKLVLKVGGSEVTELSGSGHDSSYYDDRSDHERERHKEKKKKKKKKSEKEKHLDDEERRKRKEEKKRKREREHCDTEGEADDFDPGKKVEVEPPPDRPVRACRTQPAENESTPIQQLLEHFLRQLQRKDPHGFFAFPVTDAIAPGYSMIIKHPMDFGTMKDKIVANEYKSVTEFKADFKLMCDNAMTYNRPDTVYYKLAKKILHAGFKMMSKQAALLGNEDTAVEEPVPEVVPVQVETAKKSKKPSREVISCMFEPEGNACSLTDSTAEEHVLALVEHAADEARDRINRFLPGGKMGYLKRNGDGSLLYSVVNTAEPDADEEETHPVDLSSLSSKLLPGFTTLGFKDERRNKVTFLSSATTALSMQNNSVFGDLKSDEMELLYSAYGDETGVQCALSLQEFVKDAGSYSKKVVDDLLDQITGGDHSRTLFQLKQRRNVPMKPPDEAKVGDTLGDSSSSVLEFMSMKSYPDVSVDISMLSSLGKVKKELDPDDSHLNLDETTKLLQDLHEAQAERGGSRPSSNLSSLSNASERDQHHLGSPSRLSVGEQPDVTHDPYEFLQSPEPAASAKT

[32] = biological target: T1, Bromodomain-containing protein 4; assay: Inhibition of BRD4 bromodomain 1/2 (unknown origin) by Alphascreen assay
[33] = Toxicity in mouse xenografted with human Kasumi 1 cells assessed as effect on body weight at 50 mg/kg, po administered once a day for 15 days starting from 25 days after transplantation; format: organism-based; settings: in vivo, 360 h, time 15 day
[34] = Toxicity in mouse xenografted with human Kasumi 1 cells assessed as signs of toxicity at 50 mg/kg, po administered once a day for 15 days starting from 25 days after transplantation; format: organism-based; settings: in vivo, 360 h, time 15 day
[35] = test system: Kasumi 1; assay: Antitumor activity against human Kasumi 1 cells xenografted in mouse assessed as tumor growth inhibition at 50 mg/kg, po administered once a day for 15 days starting from 25 days after transplantation relative to control; format: functional; settings: Kasumi 1, 360 h, time 15 day, read-out: TGI

Cytochrome P450 3A4, sequence (P08684 whole entry): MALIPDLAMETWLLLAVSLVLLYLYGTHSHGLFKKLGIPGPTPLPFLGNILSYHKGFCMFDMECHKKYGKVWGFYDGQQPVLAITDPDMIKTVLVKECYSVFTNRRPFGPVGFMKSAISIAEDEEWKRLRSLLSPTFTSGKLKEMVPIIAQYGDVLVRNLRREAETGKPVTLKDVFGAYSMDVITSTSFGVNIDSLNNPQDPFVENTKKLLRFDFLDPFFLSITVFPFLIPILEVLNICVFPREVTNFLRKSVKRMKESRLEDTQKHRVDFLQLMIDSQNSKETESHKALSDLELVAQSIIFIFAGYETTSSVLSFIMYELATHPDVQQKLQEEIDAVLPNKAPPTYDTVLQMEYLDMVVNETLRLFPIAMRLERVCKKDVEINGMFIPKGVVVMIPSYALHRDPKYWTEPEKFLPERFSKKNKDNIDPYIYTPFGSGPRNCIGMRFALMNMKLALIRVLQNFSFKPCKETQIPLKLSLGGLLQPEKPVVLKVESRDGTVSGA
Histone acetyltransferase p300 (Homo sapiens), sequence (Q09472 whole entry): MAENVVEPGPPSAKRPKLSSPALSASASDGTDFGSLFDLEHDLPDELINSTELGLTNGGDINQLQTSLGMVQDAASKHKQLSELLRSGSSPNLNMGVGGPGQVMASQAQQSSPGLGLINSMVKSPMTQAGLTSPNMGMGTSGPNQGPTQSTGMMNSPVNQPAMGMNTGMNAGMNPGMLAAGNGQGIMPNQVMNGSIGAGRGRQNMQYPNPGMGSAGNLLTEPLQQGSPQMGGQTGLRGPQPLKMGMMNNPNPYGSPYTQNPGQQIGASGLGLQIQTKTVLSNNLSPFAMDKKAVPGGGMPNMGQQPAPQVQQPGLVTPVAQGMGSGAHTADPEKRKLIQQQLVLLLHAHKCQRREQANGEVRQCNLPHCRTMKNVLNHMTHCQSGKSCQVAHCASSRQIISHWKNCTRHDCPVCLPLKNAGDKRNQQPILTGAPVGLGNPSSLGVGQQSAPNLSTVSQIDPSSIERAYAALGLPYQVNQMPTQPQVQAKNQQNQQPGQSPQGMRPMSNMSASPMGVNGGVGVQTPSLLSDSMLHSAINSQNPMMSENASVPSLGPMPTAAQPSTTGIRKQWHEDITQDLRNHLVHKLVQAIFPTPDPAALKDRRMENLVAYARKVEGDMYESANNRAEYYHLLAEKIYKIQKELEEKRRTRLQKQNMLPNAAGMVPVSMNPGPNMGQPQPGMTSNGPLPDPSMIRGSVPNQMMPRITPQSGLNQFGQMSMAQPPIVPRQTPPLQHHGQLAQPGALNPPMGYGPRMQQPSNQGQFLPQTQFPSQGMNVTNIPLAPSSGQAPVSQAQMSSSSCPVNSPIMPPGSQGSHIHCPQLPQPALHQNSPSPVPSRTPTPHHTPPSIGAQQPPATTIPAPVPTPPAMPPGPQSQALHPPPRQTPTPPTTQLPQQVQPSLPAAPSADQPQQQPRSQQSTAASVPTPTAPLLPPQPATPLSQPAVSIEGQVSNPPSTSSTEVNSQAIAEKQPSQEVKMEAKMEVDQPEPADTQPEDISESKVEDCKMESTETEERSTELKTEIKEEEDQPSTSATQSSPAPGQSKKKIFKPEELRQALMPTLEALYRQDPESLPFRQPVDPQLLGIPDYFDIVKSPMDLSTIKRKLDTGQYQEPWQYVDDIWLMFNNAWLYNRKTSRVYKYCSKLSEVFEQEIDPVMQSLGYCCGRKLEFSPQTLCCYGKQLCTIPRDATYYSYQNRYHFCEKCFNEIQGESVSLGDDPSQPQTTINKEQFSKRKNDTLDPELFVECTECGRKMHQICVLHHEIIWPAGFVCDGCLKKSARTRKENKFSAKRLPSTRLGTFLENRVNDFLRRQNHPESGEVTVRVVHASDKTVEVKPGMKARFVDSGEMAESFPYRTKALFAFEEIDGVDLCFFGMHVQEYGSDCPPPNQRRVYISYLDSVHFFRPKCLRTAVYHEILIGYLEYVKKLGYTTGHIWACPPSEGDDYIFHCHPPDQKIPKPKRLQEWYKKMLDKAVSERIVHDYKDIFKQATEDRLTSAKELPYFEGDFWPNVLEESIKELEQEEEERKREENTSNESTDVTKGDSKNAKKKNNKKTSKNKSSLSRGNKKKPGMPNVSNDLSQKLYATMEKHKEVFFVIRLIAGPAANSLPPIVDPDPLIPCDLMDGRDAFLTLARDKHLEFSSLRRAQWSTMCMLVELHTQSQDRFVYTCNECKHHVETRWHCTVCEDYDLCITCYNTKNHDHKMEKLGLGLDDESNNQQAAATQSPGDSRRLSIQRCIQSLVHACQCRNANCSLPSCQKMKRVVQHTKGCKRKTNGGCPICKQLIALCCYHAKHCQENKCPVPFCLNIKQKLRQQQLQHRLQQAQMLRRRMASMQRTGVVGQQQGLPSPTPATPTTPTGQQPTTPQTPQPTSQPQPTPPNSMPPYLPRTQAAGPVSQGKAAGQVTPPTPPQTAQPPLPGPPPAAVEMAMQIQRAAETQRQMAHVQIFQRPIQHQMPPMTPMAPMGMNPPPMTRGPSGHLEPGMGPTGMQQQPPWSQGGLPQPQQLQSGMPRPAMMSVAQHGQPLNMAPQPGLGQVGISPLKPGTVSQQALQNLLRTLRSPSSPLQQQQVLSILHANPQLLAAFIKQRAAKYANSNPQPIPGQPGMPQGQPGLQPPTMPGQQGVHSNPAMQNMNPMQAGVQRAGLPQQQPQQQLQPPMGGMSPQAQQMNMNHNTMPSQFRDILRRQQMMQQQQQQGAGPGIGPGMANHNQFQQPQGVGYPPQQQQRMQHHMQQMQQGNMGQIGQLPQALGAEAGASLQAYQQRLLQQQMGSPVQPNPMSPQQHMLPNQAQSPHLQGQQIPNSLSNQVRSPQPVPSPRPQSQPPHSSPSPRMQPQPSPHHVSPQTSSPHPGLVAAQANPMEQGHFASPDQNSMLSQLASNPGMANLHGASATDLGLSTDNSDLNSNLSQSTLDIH
Cytochrome P450 2C9, sequence (P11712 whole entry): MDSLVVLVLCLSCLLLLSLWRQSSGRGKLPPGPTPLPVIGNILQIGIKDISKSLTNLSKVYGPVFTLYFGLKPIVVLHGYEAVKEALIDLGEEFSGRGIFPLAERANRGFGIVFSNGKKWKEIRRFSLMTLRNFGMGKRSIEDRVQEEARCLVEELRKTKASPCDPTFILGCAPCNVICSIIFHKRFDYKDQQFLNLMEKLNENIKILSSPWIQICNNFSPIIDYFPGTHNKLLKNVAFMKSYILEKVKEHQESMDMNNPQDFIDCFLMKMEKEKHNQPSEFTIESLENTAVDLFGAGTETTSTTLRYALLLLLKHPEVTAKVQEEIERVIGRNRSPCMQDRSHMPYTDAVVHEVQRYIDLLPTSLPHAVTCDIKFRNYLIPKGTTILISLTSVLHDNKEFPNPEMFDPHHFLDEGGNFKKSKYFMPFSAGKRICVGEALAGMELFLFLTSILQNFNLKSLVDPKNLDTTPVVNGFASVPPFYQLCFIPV
Non-receptor tyrosine-protein kinase TYK2 (Homo sapiens), sequence (P29597 whole entry): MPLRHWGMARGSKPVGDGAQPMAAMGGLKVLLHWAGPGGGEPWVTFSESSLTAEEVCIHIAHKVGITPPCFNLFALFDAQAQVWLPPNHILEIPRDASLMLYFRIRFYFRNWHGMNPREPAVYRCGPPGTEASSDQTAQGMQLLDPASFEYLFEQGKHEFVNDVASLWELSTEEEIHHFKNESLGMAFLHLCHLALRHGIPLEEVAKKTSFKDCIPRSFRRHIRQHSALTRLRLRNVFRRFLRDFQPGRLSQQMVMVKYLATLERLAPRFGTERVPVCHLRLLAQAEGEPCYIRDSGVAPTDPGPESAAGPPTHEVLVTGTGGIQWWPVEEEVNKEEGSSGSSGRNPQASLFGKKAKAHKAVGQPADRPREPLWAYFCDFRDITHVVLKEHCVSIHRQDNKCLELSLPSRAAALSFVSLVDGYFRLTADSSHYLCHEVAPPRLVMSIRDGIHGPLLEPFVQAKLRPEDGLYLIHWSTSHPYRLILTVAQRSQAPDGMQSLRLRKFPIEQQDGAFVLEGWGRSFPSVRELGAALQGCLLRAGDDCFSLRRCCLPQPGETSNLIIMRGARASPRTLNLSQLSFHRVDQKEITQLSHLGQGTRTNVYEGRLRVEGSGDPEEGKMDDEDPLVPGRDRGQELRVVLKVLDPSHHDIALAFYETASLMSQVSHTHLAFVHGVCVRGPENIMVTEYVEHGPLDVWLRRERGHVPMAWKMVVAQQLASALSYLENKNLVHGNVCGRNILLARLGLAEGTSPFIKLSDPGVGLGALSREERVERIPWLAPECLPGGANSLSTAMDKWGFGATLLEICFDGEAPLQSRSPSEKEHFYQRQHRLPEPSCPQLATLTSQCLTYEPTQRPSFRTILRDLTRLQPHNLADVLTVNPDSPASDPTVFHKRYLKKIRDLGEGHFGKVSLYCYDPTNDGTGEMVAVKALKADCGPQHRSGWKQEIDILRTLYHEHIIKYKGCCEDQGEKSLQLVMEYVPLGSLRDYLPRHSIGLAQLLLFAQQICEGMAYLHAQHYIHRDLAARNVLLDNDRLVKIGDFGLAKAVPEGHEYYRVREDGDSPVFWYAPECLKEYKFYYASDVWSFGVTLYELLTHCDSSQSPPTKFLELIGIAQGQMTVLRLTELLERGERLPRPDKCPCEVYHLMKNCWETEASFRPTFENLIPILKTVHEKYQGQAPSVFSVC
Cytochrome P450 2C19, sequence (P33261 whole entry): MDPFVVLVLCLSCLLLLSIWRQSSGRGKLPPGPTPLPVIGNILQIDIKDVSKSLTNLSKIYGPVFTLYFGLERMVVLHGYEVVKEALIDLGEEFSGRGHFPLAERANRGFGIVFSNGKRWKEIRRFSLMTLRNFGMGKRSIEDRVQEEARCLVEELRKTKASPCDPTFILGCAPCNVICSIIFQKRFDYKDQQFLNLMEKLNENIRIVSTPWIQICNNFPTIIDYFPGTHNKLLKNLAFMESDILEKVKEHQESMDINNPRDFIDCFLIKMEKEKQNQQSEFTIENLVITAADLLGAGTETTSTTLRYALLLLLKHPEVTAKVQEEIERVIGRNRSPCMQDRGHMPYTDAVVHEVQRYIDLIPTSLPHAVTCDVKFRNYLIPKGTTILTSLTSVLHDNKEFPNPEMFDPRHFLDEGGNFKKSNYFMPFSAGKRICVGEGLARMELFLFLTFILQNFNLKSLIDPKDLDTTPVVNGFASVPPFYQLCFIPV

COc1cccc(CNc2cc(=O)[nH]c3ccc(-c4c(C)noc4C)cc23)c1
GI50 [1]: 1.58 µM
Kd [2]: 0.095 µM

Cc1noc(C)c1-c1ccc2[nH]c(=O)cc(NCc3ccccc3)c2c1
AUC(0-t) [3]: 25100 ng·h/mL
Tmax [4]: 0.5 h
Cmax [5]: 289 ng/mL
half-life [6]: 1.39 h
AUC(0-t) [7]: 755 ng·h/mL
Tmax [8]: 1.5 h
Cmax [9]: 9340 ng/mL
half-life [10]: 2 h
AUC(0-t) [11]: 34600 ng·h/mL
GI50 [1]: 0.595 µM
half-life [12]: 2.33 h
Cmax [13]: 7770 ng/mL
Tmax [14]: 1 h
AUC(0-t) [15]: 178000 ng·h/mL
half-life [16]: 1.02 h
Cmax [17]: 60900 ng/mL
Tmax [18]: 2 h
IC50 [19]: > 30 µM
IC50 [20]: 6.77 µM
IC50 [21]: > 30 µM
IC50 [22]: > 30 µM
IC50 [23]: > 30 µM
half-life [24]: 0.202 h
half-life [25]: 0.412 h
inhibition [26]: > 65%
inhibition [27]: > 65%
inhibition [28]: Active
inhibition [29]: Active
inhibition [30]: Active
inhibition [31]: Active
IC50 [32]: 1.1 µM
Kd [2]: 0.044 µM
Activity [33]: Non-Toxic
Activity [34]: Non-Toxic
inhibition in vivo at 50 mg/kg [35]: 60%

Cc1noc(C)c1-c1ccc2[nH]c(=O)cc(NCc3ccccc3Cl)c2c1
GI50 [1]: 1.66 µM
Kd [2]: 0.055 µM

Cc1noc(C)c1-c1ccc2[nH]c(=O)cc(N3CCCCC3)c2c1
GI50 [1]: 0.833 µM
Kd [2]: 0.054 µM

Cc1noc(C)c1-c1ccc2[nH]c(=O)cc(NCc3cccc(C(F)(F)F)c3)c2c1
Kd [2]: 0.22 µM

Cc1ccc(-c2nnc(Sc3c(-c4ccccc4)c4cc(Br)ccc4[nH]c3=O)n2N)cc1
GI50 [1]: 0.22 µM
IC50 [32]: 3.7 µM

Cc1noc(C)c1-c1ccc2[nH]c(=O)cc(NCc3ccc(Cl)cc3)c2c1
GI50 [1]: 1.7 µM
Kd [2]: 0.21 µM

Cc1noc(C)c1-c1ccc2[nH]c(=O)cc(-c3ccccc3)c2c1
GI50 [1]: 16 µM
IC50 [32]: 3.1 µM
Kd [2]: 1.3 µM

Cc1noc(C)c1-c1ccc2[nH]c(=O)cc(NCc3cccc(Cl)c3)c2c1
GI50 [1]: 1.22 µM
Kd [2]: 0.028 µM

COc1ccccc1CNc1cc(=O)[nH]c2ccc(-c3c(C)noc3C)cc12
GI50 [1]: 1.04 µM
Kd [2]: 0.035 µM

— ChEMBL document CHEMBL5252613, “Discovery and anti-tumor activity of 4-(benzylamino)-6-(3,5-dimethylisoxazol-4-yl)quinolin-2(1H)-one (CG13250), a potent, selective and orally bioavailable BET bromodomain inhibitor” (Bioorg Med Chem Lett, 2023)
